From patent US10407428B2, “Spiro-isoquinoline-1,4′-piperidine compounds having multimodal activity against pain” (ESTEVE PHARMACEUTICALS, S.A., priority 2014, dated 2019)

The molecules below were run on human σ1 receptor and human μ-opioid receptor (assay: Human σ1 receptor radioligand assay and human μ-opioid receptor radioligand assay (μ and σ1 dual binding)). Conditions: not given.
Set-up: key to μ and σ1 dual binding: +: Both Ki-μ and Ki-σ1>=500 nM; ++: One Ki<500 nM while the other Ki is >=500 nM; +++: Both Ki-μ and Ki-σ1<500 nM; ++++: Both Ki-μ and Ki-σ1<100 nM

SMILES | μ and σ1 dual binding | Ki [nM]
CCN1CCc2ccccc2C12CCN(CCN1CCOCC1)CC2 [Example 148, 4-(2-(2-ethyl-3,4-dihydro-2H-spiro[isoquinoline-1,4′-piperidine]-1′-yl)ethyl)morpholine] | ++ | 
CCN1CCc2ccccc2C12CCN(CC(=O)N1CCS(=O)(=O)CC1)CC2 [Example 149, 2-(2-ethyl-3,4-dihydro-2H-spiro[isoquinoline-1,4′-piperidine]-1′-yl)-1-(1,1-dioxo-thiomorpholin-4-yl)ethanone] | ++ | 
CCN1CCc2ccccc2C12CCN(CC(=O)N1CCC(F)CC1)CC2 [Example 150, 2-(2-ethyl-3,4-dihydro-2H-spiro[isoquinoline-1,4′-piperidine]-1′-yl)-1-(4-fluoropiperidin-1-yl)ethanone] |  | < 500
CCN1CCc2ccccc2C12CCN(CC(=O)N1CCCC(F)(F)C1)CC2 [Example 151, 1-(3,3-difluoropiperidin-1-yl)-2-(2-ethyl-3,4-dihydro-2H-spiro[isoquinoline-1,4′-piperidine]-1′-yl)ethanone] |  | < 500
CCC(CC)N(C)C(=O)CN1CCC2(CC1)c1ccccc1CCN2CC [Example 152, 2-(2-ethyl-3,4-dihydro-2H-spiro[isoquinoline-1,4′-piperidine]-1′-yl)-N-methyl-N-(pentan-3-yl)acetamide] | ++ | 
CCN1CCc2ccccc2C12CCN(CC(=O)N(C)C)CC2 [Example 153, 2-(2-ethyl-3,4-dihydro-2H-spiro[isoquinoline-1,4′-piperidine]-1′-yl)-N,N-dimethylacetamide] | ++ | 
CCN(C(=O)CN1CCC2(CC1)c1ccccc1CCN2CC)C1CC1 [Example 154, N-cyclopropyl-N-ethyl-2-(2-ethyl-3,4-dihydro-2H-spiro[isoquinoline-1,4′-piperidine]-1′-yl)acetamide] |  | < 500
CCN(CC)C(=O)CN1CCC2(CC1)c1ccccc1CCN2CC [Example 155, N,N-diethyl-2-(2-ethyl-3,4-dihydro-2H-spiro[isoquinoline-1,4′-piperidine]-1′-yl)acetamide] |  | < 500

Same assay, conditions: combined class for Ki-μ ([3H]-DAMGO, CHO-K1 membranes) and Ki-σ1 ([3H](+)-pentazocine, HEK-293 membranes)

SMILES | Ki [nM]
CN1Cc2ccccc2C12CCN(CC(=O)N1CCC(F)(F)CC1)CC2 [Example 156, 1-(4,4-difluoropiperidin-1-yl)-2-(2-methylspiro[isoindoline-1,4′-piperidine]-1′-yl)ethanone] | ≥ 500
CCN(C(=O)CN1CCC2(CC1)c1ccccc1CN2C)C(C)C [Example 157, N-ethyl-N-isopropyl-2-(2-methylspiro[isoindoline-1,4′-piperidine]-1′-yl)acetamide] | ≥ 500
CN1CCc2ccccc2C12CCN(CCNCCO)CC2 [Example 160, 2-(2-(2-Methyl-3,4-dihydro-2H-spiro[isoquinoline-1,4′-piperidine]-1′-yl)ethylamino)ethanol] | ≥ 500
